Patent publication US20210340572A1, “HIGH-CONTENT IMAGING OF MICROFLUIDIC DEVICES” (EMULATE, Inc., priority 2019, published 2021)
Each block holds one compound with its values, some of them ahead of it.

Legend:
[1] = test system: microfluidic devices seeded with human liver cells; assay: Albumin secretion, microfluidic devices seeded with human liver cells; type: cell-based
Source text: Prior to cell seeding, microfluidic devices, in this case S-1 Chips (Emulate, Inc. Boston, Mass., USA), were functionalized using Emulate's proprietary protocols and reagents (ERT™), including those described herein. After surface functionalization, both channels of the microfluidic device were coated with species-specific extracellular matrices (ECM). For the human bound microfluidic device, a mixture of collagen type I (Corning, Corning, N.Y., USA) and fibronectin, e.g. bovine, (Gibco) was used; for the rat bound microfluidic devices a mixture of collagen type IV, e.g. human placenta, (Sigma-Aldrich, St. Louis, Mo., USA) and fibronectin (Gibco) was used; for the dog bound microfluidic devices a mixture of collagen I (Corning), collagen type IV (Sigma-Aldrich), and fibronectin (Gibco) was used. […] For the dual-cell culture model (hepatocytes and endothelial cells), the LSECs were seeded at a concentration of 2-4 million cells/mL in the lower vascular channel. […] After cell seeding, the upper channel of the microfluidic device was maintained in William's E Medium (WEM) containing Glutamax (Gibco), ITS+(Corning), dexamethasone (Sigma-Aldrich), ascorbic acid (Sigma-Aldrich), fetal bovine serum (FBS) (Sigma-Aldrich), and Penicillin/Streptomycin (Sigma-Aldrich). The vascular channel of the microfluidic device was maintained with species-specific endothelial media (Emulate, Inc.). Two days after seeding, the microfluidic devices were connected to the Human Emulation System™ (Emulate, Inc.), as described in part herein, and both of the microfluidic device channels were perfused at 30 μL/hr to provide a continuous supply of fresh media for the duration of the experiments. Albumin secretion from the upper channel was quantified using ELISA kits for human, rat, and dog models effluent samples (human and rat: Abcam; dog: Immunology Consultants Laboratory, Inc., Portland, Oreg., USA) and the assays were performed according to the protocol provided by each vendor.

[2] = test system: microfluidic devices seeded with human liver cells; assay: APAP metabolite quantification by LC-MS in human chips; type: in vitro ADME; conditions: daily 3 mM for 20 days, flow 10 μL/hr
Source text: After APAP exposure to microfluidic devices seeded with human liver cells, effluent metabolite levels were quantified using LC-MS analysis. […] APAP-Glucuronide (APAP-Glu), the primary metabolite of APAP, was not quantified using a standard curve. Rather, the LC-MS peak area of APAP-Glu was reported corresponding to each sample.

[3] = Phase I dose-escalating study, clinical chemistry (ALT, AST); type: in vivo, human; conditions: Phase I clinical trial
Protocol: A double-blind, placebo-controlled, randomized, dose-escalating, sequential group design was conducted in 2 Parts. Subjects received daily doses of JNJ-28312141 or placebo for a total of 2 weeks (the first dose on Day 1 and then daily on Days 3 to 14). Part 1 included 5 cohorts of healthy male or female subjects. In Part 2 of the study, 2 cohorts of postmenopausal women (PMW) were enrolled. Within each cohort of 12 subjects, 9 subjects were randomized to JNJ-1, and 3 subjects were randomized to placebo. Dose escalation only occurred after the Sponsor and the Investigator had performed a satisfactory review of the preliminary safety data including those obtained on the post-study follow up visit (anytime between Days 30 to 32), and of the drug concentration and PK data (if available) at the current dose level. In addition to efficacy endpoints, and pharmacokinetics, an assessment of safety included measurement of clinical chemistry parameters, including ALT and AST.

[4] = test system: Kupffer cells; assay: Kupffer cell count (CD68-positive cells) in human chips; type: cell-based; conditions: human quadruple-cell chips
Protocol: Microfluidic devices seeded with liver cells and static sandwich plate cultures were fixed with 4% paraformaldehyde for 15 minutes at room temperature, washed with PBS, and permeabilized (saponin 1% with 10% serum in PBS). Blocking and incubation with the primary antibodies (overnight in PBS containing 1% BSA or PBS containing 10% serum and 1% BSA) was followed by a two-hour incubation with secondary antibodies (Cell Signaling, Danvers, Mass., USA) in the same blocking buffer. Immunostaining was performed with specific primary antibodies (anti-MRP2, anti-stabilin-1, anti-BSEP, anti-α-SMA, anti-CD68; Abcam, Cambridge, Mass., USA) and images were acquired with either an Olympus fluorescence microscope (IX83) or Zeiss confocal microscope (AxiovertZ1 LSM880).
The number of CD68- or α-SMA-positive cells in the vascular channel in each group was counted in each field of view ([…]) and quantified.

[5] = Repeat-dose toxicity study of JNJ-1 in dogs; type: in vivo; conditions: dog study
Protocol: (§1) JNJ-1, prepared in purified water, was administered once daily for 14 days to 5 male and 5 female rats at doses of 5, 25, and 125 mg/kg. In a separate study, JNJ-1, also in purified water, was administered once daily for 4 weeks to 5 male and 5 female dogs at 0 or 40 mg/kg/day, and to 3 males and 3 female dogs at 2 or 10 mg/kg/day. Mortality, clinical observations, body weight, food consumption, clinical pathology, gross necropsy and microscopic examination of selected tissues, and toxicokinetics were evaluated. Rats or dogs were fasted overnight prior to blood collection for measurement of clinical pathology parameters (including AST and ALT) at the end of 14 days (rats) or 4 weeks (dogs) of dosing. Histology slides (hematoxylin and eosin staining and Mason's Trichrome staining) of the liver tissues were prepared and evaluated microscopically. The quantification of JNJ-1 was conducted using a qualified liquid chromatographic-triple quadrupole mass spectrometric (LC-MS/MS) procedure.

[6] = Repeat-dose toxicity study of JNJ-1 in rats; type: in vivo; conditions: rat study
Protocol: as §1

[7] = test system: microfluidic devices seeded with human liver cells; assay: Cytokine release (IL-6, MCP-1, IP-10) from the vascular channel of human chips; type: cell-based; conditions: human quadruple-cell chips
Protocol: Cytokines: Release of IL-6, MCP-1, and IP-10 from the vascular channel was quantified using U-PLEX biomarker human assays (Meso Scale Diagnostics, Rockville, Md., USA) and the assays were performed according to the protocol provided by the vendor.

[8] = target: T1, BSEP (Homo sapiens, UniProt O95342); assay: CLF efflux (BSEP activity) in human hepatocytes on chip; type: cell-based; conditions: 30 μM
T1 construct: Primary rat, dog or human hepatocytes were cultured in the upper parenchymal channel; endogenous in cells; host or cells: primary human hepatocytes in a microfluidic Liver-Chip, co-cultured with LSECs
T1 sequence (O95342 whole entry): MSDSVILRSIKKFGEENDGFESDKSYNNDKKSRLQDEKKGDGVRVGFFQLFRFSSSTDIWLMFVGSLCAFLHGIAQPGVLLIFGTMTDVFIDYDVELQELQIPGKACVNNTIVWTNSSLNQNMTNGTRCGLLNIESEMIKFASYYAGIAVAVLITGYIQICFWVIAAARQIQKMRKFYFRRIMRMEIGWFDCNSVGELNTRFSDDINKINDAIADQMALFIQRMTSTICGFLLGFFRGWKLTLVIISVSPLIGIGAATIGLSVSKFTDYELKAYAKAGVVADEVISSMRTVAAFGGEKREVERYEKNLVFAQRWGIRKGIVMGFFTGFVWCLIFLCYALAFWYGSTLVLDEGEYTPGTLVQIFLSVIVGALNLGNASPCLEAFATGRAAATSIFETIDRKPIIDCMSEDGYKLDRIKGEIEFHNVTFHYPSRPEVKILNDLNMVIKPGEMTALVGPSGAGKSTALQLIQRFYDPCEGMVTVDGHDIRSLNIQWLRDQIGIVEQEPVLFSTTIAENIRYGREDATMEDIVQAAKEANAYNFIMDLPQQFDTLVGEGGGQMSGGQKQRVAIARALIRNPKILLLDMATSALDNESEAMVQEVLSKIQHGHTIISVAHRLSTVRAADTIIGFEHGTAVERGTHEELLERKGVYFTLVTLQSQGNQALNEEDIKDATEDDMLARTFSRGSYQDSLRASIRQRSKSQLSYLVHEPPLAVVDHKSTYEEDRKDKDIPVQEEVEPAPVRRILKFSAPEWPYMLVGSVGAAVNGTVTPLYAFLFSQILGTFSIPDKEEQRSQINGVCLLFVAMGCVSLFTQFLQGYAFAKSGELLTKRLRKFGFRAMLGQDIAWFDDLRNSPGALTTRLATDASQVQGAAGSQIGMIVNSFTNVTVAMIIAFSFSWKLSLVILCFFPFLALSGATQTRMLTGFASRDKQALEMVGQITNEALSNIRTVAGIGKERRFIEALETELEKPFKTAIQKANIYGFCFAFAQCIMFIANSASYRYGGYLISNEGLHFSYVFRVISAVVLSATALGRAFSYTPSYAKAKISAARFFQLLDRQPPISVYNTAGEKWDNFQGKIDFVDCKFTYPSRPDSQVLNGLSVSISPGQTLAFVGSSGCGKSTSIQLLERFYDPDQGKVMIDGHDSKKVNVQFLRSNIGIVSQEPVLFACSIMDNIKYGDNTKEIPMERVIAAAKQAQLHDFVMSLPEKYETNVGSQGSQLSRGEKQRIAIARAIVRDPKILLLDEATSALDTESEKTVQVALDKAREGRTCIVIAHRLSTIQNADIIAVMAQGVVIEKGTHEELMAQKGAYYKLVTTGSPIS

[9] = test system: microfluidic devices seeded with dog liver cells; assay: Albumin secretion, microfluidic devices seeded with dog liver cells; type: cell-based; conditions: Canis lupus familiaris, 168 h; dual-cell dog chips, daily administration 1-100 μM, 7 days; read-out: IC50, decrease in albumin secretion
Source text: (§2) Prior to cell seeding, microfluidic devices, in this case S-1 Chips (Emulate, Inc. Boston, Mass., USA), were functionalized using Emulate's proprietary protocols and reagents (ERT™), including those described herein. After surface functionalization, both channels of the microfluidic device were coated with species-specific extracellular matrices (ECM). For the human bound microfluidic device, a mixture of collagen type I (Corning, Corning, N.Y., USA) and fibronectin, e.g. bovine, (Gibco) was used; for the rat bound microfluidic devices a mixture of collagen type IV, e.g. human placenta, (Sigma-Aldrich, St. Louis, Mo., USA) and fibronectin (Gibco) was used; for the dog bound microfluidic devices a mixture of collagen I (Corning), collagen type IV (Sigma-Aldrich), and fibronectin (Gibco) was used. […] For the dual-cell culture model (hepatocytes and endothelial cells), the LSECs were seeded at a concentration of 2-4 million cells/mL in the lower vascular channel. […] Albumin secretion from the upper channel was quantified using ELISA kits for human, rat, and dog models effluent samples (human and rat: Abcam; dog: Immunology Consultants Laboratory, Inc., Portland, Oreg., USA) and the assays were performed according to the protocol provided by each vendor.

[10] = human plasma; cited from earlier work
[11] = test system: microfluidic devices seeded with rat liver cells; assay: Albumin secretion / hepatocyte function, microfluidic devices seeded with rat liver cells; type: cell-based; conditions: Hepatocyte, 168 h; dual-cell rat chips, daily administration 1-100 μM, 7 days; read-out: IC50, decrease in albumin secretion
Source text: as §2

[12] = test system: 3D human spheroid hepatic cultures; conditions: compared with human chip IC50; cited from earlier work
[13] = test system: primary human hepatocytes and liver sinusoidal endothelial cells (LSECs); assay: High-content confocal imaging of microfluidic devices seeded with liver cells; type: cell-based; conditions: 10 μM, six hours of exposure
Protocol: Microfluidic devices were obtained from Emulate Inc. (USA) and are illustrated in FIG. 1A. The channels of the microfluidic devices were coated with a proprietary mixture of extracellular matrix and were incubated overnight at 37° C. Primary human cryopreserved hepatocytes sourced from ThermoFisher, as one example, were seeded in the top channel at a density of 3.5×10^6 cells/mL, and were left to form an attached monolayer at 37° C. in a humidified incubator with a 95%/5% ratio of air to CO2.
Twenty-four hours after seeding, the hepatocyte monolayer was overlaid with Matrigel Matrix sourced from Corning, USA. Primary human cryopreserved liver sinusoidal endothelial cells, also known as LSECs, were seeded on the bottom channel of the microfluidic device at a density of 2 to 4×10^6 cells/mL in endothelial medium, also known as CSC medium or Base LSEC Culture Medium; CSC basal Medium plus Culture-Boost (2%), Cell Systems, and Pen/Strep (1%), Sigma. In some embodiments, endothelial cells are cultured in Complete LSEC Culture Medium, Base LSEC Culture Medium plus 10% FBS.
Microfluidic devices were inverted for 2 hours to allow attachment underneath the membrane, and then inverted back before being connected to a platform containing a pneumatic pump source from Emulate Inc. Media was flowed through both channels at a flow rate of 30 μL/hour and was refreshed every other day.
The effects of agents, such as staurosporine on cell phenotype was evaluated. Microfluidic devices were perfused with staurosporine (0 and 10 μM) for 6 hours at a flow rate of 30 μL/hour. A compound was also tested in the microfluidic devices seeded with liver cells. The microfluidic devices seeded with liver cells were perfused with the compound at the concentrations of 0.1 μM, 1 μM or 10 μM for 3 hours, after which the compound was removed from the media flow. The protocol was chosen as it was analogous to how the compound has been evaluated in vivo. […]

albumin synthesis / secretion ([1]; quadruple-cell human chips, 7 days): decreased | APAP glucuronide in parenchymal and vascular channels [2]: significant amounts
Structure (SMILES): CC(=O)Nc1ccc(O)cc1 [APAP, acetaminophen]

Structure (SMILES): CN(C)CC(=O)N1CCC(c2ccc(NC(=O)c3nc(C#N)c[nH]3)c(C3=CCCCC3)c2)CC1 [JNJ compound]
healthy subjects with elevation of alanine aminotransferase (ALT) [3]: 3/12 | healthy subjects with elevation of aspartate aminotransferase (AST) [3]: 7/12 | Kupffer cells (CD68-positive cells) [4]: decreased number | microscopic changes in the liver [5]: without any correlative microscopic changes | transaminases [5]: Dose-related elevation | microscopic changes in the liver [6]: without any correlative microscopic changes | transaminases [6]: Dose-related elevation | interleukin 6 (IL-6) in the vascular channel [7]: dose-dependent decrease | monocyte chemoattractant protein-1 (MCP-1) in the vascular channel [7]: dose-dependent decrease

Structure (SMILES): COc1ccccc1Oc1c(NS(=O)(=O)c2ccc(C(C)(C)C)cc2)nc(-c2ncccn2)nc1OCCO [bosentan]
intracellular accumulation of CLF [8]: intracellular accumulation | reduction in CLF efflux ([8]; co-treatment with CLF): > 50% | IC50 [9]: 30 µM | plasma concentration (Cmax) associated with DILI in humans [10]: 7.4 µM | IC50 [11]: > 100 µM | IC50 ([1]; 72 h, dual-cell human chips, daily administration 1-100 μM, 3 days, read-out: IC50, decrease in albumin secretion): 10 µM | IC50 in 3D human spheroid hepatic cultures relative to human chip [12]: more than 10 fold higher

Structure (SMILES): CN[C@@H]1C[C@H]2O[C@@](C)([C@@H]1OC)n1c3ccccc3c3c4c(c5c6ccccc6n2c5c31)C(=O)NC4 [staurosporine]
LSECs (cell number) [13]: complete loss of LSECs | apoptotic marker (CC3) [13]: marked increases | hepatocyte cell number [13]: little if any effect
